# Values quoted from earlier work as cited in US6043217A, “Amide derivative of amythiamicin” (Zaidan Hojin Biseibutsu Kagaku Kenyu Kai, priority 1996, dated 2000).
# Conditions: background statement on known amythiamicins; cited from earlier work
compound,measurement,value
CNC(=O)CC1NC(=O)c2csc(n2)-c2ccc(-c3nc(C4=NC(C(=O)N5CCCC5C(N)=O)CO4)cs3)nc2-c2csc(n2)-c2csc(n2)C(C(C)C)NC(=O)CNC(=O)c2csc(n2)C(C(C)C)NC(=O)c2nc1sc2C (centres unmarked) [Amythiamicin A],solubility in water,hardly soluble in water
"CNC(=O)CC1NC(=O)c2csc(n2)-c2ccc(-c3nc(C(=O)OCC4NC(=O)C5CCCN5C4=O)cs3)nc2-c2csc(n2)-c2csc(n2)C(C(C)C)NC(=O)CNC(=O)c2csc(n2)C(C(C)C)NC(=O)c2nc1sc2C (centres unmarked) [Amythiamicin C, amythiamicin C]",solubility in water,hardly soluble in water
